Data from patent US20240174618A1, “SUBSTITUTED (2-HETEROARYLOXYPHENYL)SULFONATES, SALTS THEREOF AND THEIR USE AS HERBICIDAL AGENTS” (Bayer Aktiengesellschaft, priority 2021, published 2024).

How the values were obtained:
Assay type in all cases: in vivo
[1] = system: Stellaria media (STEME); experiment: B. Herbicidal post-emergence efficacy, STEME
Method in brief: (§1)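 Readout: visual % kill vs untreated, ~3 wk post-spray. Plants in sandy loam pots, treated at one-leaf stage; spray = WP/EC in water + 0.5% additive, 600 L/ha, dose ≤1280 g/ha.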

[2] = system: Amaranthus retroflexus (AMARE); experiment: B. Herbicidal post-emergence efficacy, AMARE
Method in brief: as §1

[3] = system: Abutilon theophrasti (ABUTH); experiment: C. Herbicidal pre-emergence efficacy, ABUTH; conditions: scored after about 3 weeks
Excerpt: Seeds of monocotyledonous and dicotyledonous weed plants and crop plants were placed in plastic or organic planting pots and covered with soil. The compounds of the invention, formulated in the form of wettable powders (WP) or as emulsion concentrates (EC), were then applied to the surface of the covering soil as aqueous suspension or emulsion with addition of 0.5% additive at a water application rate equivalent to 600 l/ha (converted). After the treatment, the pots were placed in a greenhouse and kept under good growth conditions for the test plants. After about 3 weeks, the efficacy of the preparations was scored visually in comparison with untreated controls as percentages. For example, • 100% efficacy=plants have died, • 0% efficacy=like untreated control plants.
Tables C1a to C14b below show the effects of selected compounds of the general formula (I) according to table 1 on various harmful plants at an application rate corresponding to 320 g/ha or less, which were obtained by the experimental procedure mentioned above.

[4] = system: Viola tricolor (VIOTR); experiment: C. Herbicidal pre-emergence efficacy, VIOTR
Method in brief: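 Pre-emergence test: formulated compounds sprayed as aqueous suspension or emulsion with 0.5% additive at 600 l/ha onto soil covering sown seeds, at rates corresponding to 320 g/ha or less. After about 3 weeks in greenhouse, efficacy scored visually as percent versus untreated controls (100% = plants dead).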

[5] = system: Echinochloa crus-galli (ECHCG); experiment: B. Herbicidal post-emergence efficacy, ECHCG; conditions: rated visually after about 3 weeks
Method in brief: as §1

[6] = system: Veronica persica (VERPE); experiment: B. Herbicidal post-emergence efficacy, VERPE
Method in brief: as §1

[7] = system: Alopecurus myosuroides (ALOMY); experiment: A. Herbicidal pre-emergence efficacy, ALOMY; conditions: 1280 g/ha; scored visually after about 3 weeks vs untreated controls
Excerpt: Seeds of mono- and dicotyledonous weed plants were placed in plastic pots in sandy loam soil (doubly sown with one species each of mono- or dicotyledonous weed plants per pot) and covered with soil. The compounds of the invention, formulated in the form of wettable powders (WP) or as emulsion concentrates (EC), were then applied onto the surface of the covering soil as aqueous suspension or emulsion with addition of 0.5% additive at a water application rate of 600 liters per hectare (converted). After the treatment, the pots were placed in a greenhouse and kept under good growth conditions for the test plants. After about 3 weeks, the efficacy of the preparations was scored visually in comparison with untreated controls as percentages.
For example, • 100% efficacy=plants have died, • 0% efficacy=like untreated control plants.
Tables A1a to A12c below show the effects of selected compounds of the general formula (I) according to table 1 on various harmful plants at an application rate corresponding to 1280 g/ha or less, which were obtained by the experimental procedure mentioned above.

| Structure (SMILES) | Post-emergence efficacy against STEME ([1]; 320 g/ha) | Post-emergence efficacy against STEME ([1]; 1280 g/ha) | Post-emergence efficacy against AMARE ([2]; 320 g/ha) | Post-emergence efficacy against AMARE ([2]; 1280 g/ha) | Pre-emergence efficacy against ABUTH ([3]; 320 g/ha) | Pre-emergence efficacy against VIOTR in % ([4]; application rate 80 g/ha) | Pre-emergence efficacy against VIOTR in % ([4]; application rate 320 g/ha) | Post-emergence efficacy against ECHCG in % ([5]; 320 g/ha) | Post-emergence efficacy against ECHCG in % ([5]; 1280 g/ha) | Post-emergence efficacy against VERPE ([6]; 1280 g/ha) | Post-emergence efficacy against AMARE ([2]; 80 g/ha) | Post-emergence efficacy against STEME ([1]; 80 g/ha) | Pre-emergence efficacy against ABUTH ([3]; 80 g/ha) | Post-emergence efficacy against VERPE ([6]; 80 g/ha) | Post-emergence efficacy against VERPE ([6]; 320 g/ha) | Post-emergence efficacy against ECHCG in % ([5]; 80 g/ha) | Pre-emergence efficacy against ALOMY [7] |
| --- | --- | --- | --- | --- | --- | --- | --- | --- | --- | --- | --- | --- | --- | --- | --- | --- | --- |
| CC(C)CS(=O)(=O)Oc1ccccc1Oc1ncc(Cl)cn1 [Example I-7, [2-(5-Chloropyrimidin-2-yl)oxyphenyl] 2-methylpropane-1-sulfonate] | 90% | 90% | 90% | 90% | 100% | 80% | 100% | 90% | 90% | – | – | – | – | – | – | – | – |
| O=S(=O)(CCl)Oc1ccccc1Oc1ncc(Cl)cn1 [Example I-9] | – | 90% | 100% | 100% | – | 90% | 100% | – | 90% | 100% | 90% | – | – | – | – | – | – |
| Cc1cccc(OS(=O)(=O)CCCCl)c1Oc1ncc(Cl)cn1 [Example I-12] | 90% | 100% | 90% | 100% | 90% | – | 90% | – | – | 90% | – | 90% | 80% | – | – | – | – |
| O=S(=O)(CCCCl)Oc1cccc(F)c1Oc1ncc(Cl)cn1 [Example I-13] | 90% | 100% | 90% | 100% | 90% | – | – | – | 90% | 100% | – | – | – | 90% | 100% | – | – |
| O=S(=O)(CCCCCl)Oc1ccccc1Oc1ncc(Cl)cn1 [Example I-15] | 100% | 100% | 100% | 100% | 100% | 100% | 100% | 100% | 100% | 100% | 100% | 100% | – | 100% | 100% | 90% | – |
| CCS(=O)(=O)Oc1ccccc1Oc1ncc(Cl)cn1 [Example I-16] | 100% | 100% | 100% | 100% | – | – | – | – | 90% | 100% | 100% | 90% | – | 100% | 100% | – | – |
| CCCCCS(=O)(=O)Oc1ccccc1Oc1ncc(Cl)cn1 [Example I-24] | 90% | 100% | 100% | 100% | – | 80% | 80% | – | 100% | 100% | 90% | 90% | – | 90% | 100% | – | – |
| CC(C)CCS(=O)(=O)Oc1ccccc1Oc1ncc(Cl)cn1 [Example I-25] | 100% | 100% | 100% | 100% | 100% | 90% | 100% | 90% | 100% | 100% | 90% | 90% | – | 100% | 100% | – | – |
| Cc1cccc(Oc2ncc(Cl)cn2)c1OS(=O)(=O)CCCC(F)(F)F [Example I-28, 2-[(5-Chloropyrimidin-2-yl)oxy]-6-methylphenyl 4,4,4-trifluorobutane-1-sulfonate] | 100% | 100% | 90% | 100% | – | – | – | 90% | 100% | 100% | – | 90% | – | 100% | 100% | – | 100% |
